Experiments:
[1] = Transfer of ferrous gluconate from dialysate into blood by hemodialysis through a PAN membrane dialyzer; type: in vitro ADME, bovine
Procedure: A two liter volume of bovine blood (hematocrit adjusted from 49 to 40 with saline) which had been stored with heparin anticoagulation for 24 hours was dialyzed using a PAN membrane dialyzer. The volume was maintained at 2 liters throughout the experiment by adding saline.
A sample of the blood was taken prior to dialysis of the blood and tested for iron content. The iron content of the pre-dialysis blood was 110 μg/dl and the transferrin iron binding capacity was 234 μg/dl. Dialysis was then started using the following equipment and conditions:
The circuit was primed with dialysate, prepared as described above, pumps were adjusted for proper flow, and then the blood side was drained of dialysate by pulling the Blood In tube out of the dialysis bath and allowing air to fill this side.
Assays were performed to determine plasma iron concentrations at 0, 5, 10, 20 and 30 minutes. […] This transfer indicates an avidity of plasma for the iron complex, even higher than the iron binding capacity of transferrin.

red blood cells = assay: Monitoring of hemolysis in experimental dialysis (plasma absorbance at 420 and 585 nm); set-up: species or system bovine; details: compared with similar experiments without iron in the dialysate
Text: To determine whether the method of Example 1 would cause hemolysis (lysis of red blood cells with the liberation of hemoglobin), absorbance data at 420 and 585 nm was collected for the plasma at various stages of the experiment described in Example 1.

## ferrous gluconate
[1]; after 30 minutes of dialysis, dialysate iron 125 μg/dl, pre-dialysis blood iron 110 μg/dl, transferrin iron binding capacity 234 μg/dl
  plasma iron level: ~500 µg/dL
[1]; after only a few minutes of hemodialysis, dialysate iron 125 μg/dl
  percent saturation of transferrin: 100%
[1]; dialysate ferrous gluconate increased to 4 mg/dl
  iron transferred per dialysis treatment: 15 mg
[1]; if the initial rate of iron transfer is continued for 180 minutes, dialysate 1 mg/dl ferrous gluconate
  iron transferred to the plasma: approximately 4 mg
Red blood cells
  level of hemolysis during dialysis: not higher than that of similar experiments conducted without iron in the dialysate
